The subject of the test is P388 leukemia ip, CD2F1 mice, survival T/C. Kind of test: NCI In Vivo Anticancer Drug Screen. Data for tumor model P388 Leukemia (intraperitoneal) in CD2F1 (CDF1) mice. The settings on record: endpoint: median survival time, higher = longer survival. Summed up: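 Mice carrying the transplanted tumor received test compound or vehicle. Survival was recorded in each group, and the value is the treated-group measurement divided by that of the vehicle-treated control group.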

Where [1] appears, read: dose: 100.0 mg/kg/injection, schedule: Q04DX002 (ip), vehicle: saline with Tween-80.
[2] abbreviates: dose: 200.0 mg/kg/injection, schedule: Q04DX002 (ip), vehicle: saline with Tween-80.
The mark [3] stands for this setting: dose: 12.5 mg/kg/injection, schedule: Q01DX009 (ip), vehicle: saline.
The mark [4] stands for this setting: dose: 25.0 mg/kg/injection, schedule: Q01DX009 (ip), vehicle: saline.
[5] abbreviates: dose: 50.0 mg/kg/injection, schedule: Q01DX009 (ip), vehicle: saline with Tween-80.
[6] abbreviates: dose: 50.0 mg/kg/injection, schedule: Q01DX009 (ip), vehicle: saline.
Setting [7] is: dose: 25.0 mg/kg/injection, schedule: Q01DX005 (ip), vehicle: Klucel (hydroxypropylcellulose) (HPC).
Where [8] appears, read: dose: 50.0 mg/kg/injection, schedule: Q01DX005 (ip), vehicle: Klucel (hydroxypropylcellulose) (HPC).
Where [9] appears, read: dose: 100.0 mg/kg/injection, schedule: Q01DX005 (ip), vehicle: Klucel (hydroxypropylcellulose) (HPC).
[10] abbreviates: dose: 200.0 mg/kg/injection, schedule: Q01DX005 (ip), vehicle: Klucel (hydroxypropylcellulose) (HPC).
The mark [11] stands for this setting: dose: 6.25 mg/kg/injection, schedule: Q01DX005 (ip), vehicle: Klucel (hydroxypropylcellulose) (HPC).
The mark [12] stands for this setting: dose: 12.5 mg/kg/injection, schedule: Q01DX005 (ip), vehicle: Klucel (hydroxypropylcellulose) (HPC).
Setting [13] is: dose: 100.0 mg/kg/injection, schedule: Q04DX003 (ip), vehicle: saline.
[14] abbreviates: dose: 200.0 mg/kg/injection, schedule: Q04DX003 (ip), vehicle: saline.
The mark [15] stands for this setting: dose: 400.0 mg/kg/injection, schedule: Q04DX003 (ip), vehicle: saline.
Where [16] appears, read: dose: 100.0 mg/kg/injection, schedule: Q01DX009 (ip), vehicle: saline.
Setting [17] is: dose: 100.0 mg/kg/injection, schedule: Q01DX009 (ip), vehicle: saline with Tween-80.
[18] abbreviates: dose: 200.0 mg/kg/injection, schedule: Q01DX009 (ip), vehicle: saline with Tween-80.
Setting [19] is: dose: 50.0 mg/kg/injection, schedule: Q01DX005 (ip), vehicle: saline with Tween-80.
[20] abbreviates: dose: 100.0 mg/kg/injection, schedule: Q01DX005 (ip), vehicle: saline with Tween-80.
The mark [21] stands for this setting: dose: 200.0 mg/kg/injection, schedule: Q01DX005 (ip), vehicle: saline with Tween-80.
Where [22] appears, read: dose: 60.0 mg/kg/injection, schedule: Q01DX005 (ip), vehicle: saline with Tween-80.
Where [23] appears, read: dose: 120.0 mg/kg/injection, schedule: Q01DX005 (ip), vehicle: saline with Tween-80.
Where [24] appears, read: dose: 60.0 mg/kg/injection, schedule: Q01DX005 (ip), vehicle: Klucel (hydroxypropylcellulose) (HPC).

Structures are written as SMILES. Where “and” joins values, the source holds several entries; their conditions need not be identical. Equal entries are not always repeated. Inconclusive results and toxic doses are left out.

Results on 21 molecules are retold here after PubChem BioAssay AID330 (DTP/NCI, 2004).

With `CC1C(=O)OC2C1CCC1(C)C=C(Cl)C(=O)C3(C)OC213` (stereo not drawn), the T/C is, setting by setting: (dose: 50.0 mg/kg/injection, schedule: Q04DX002 (ip), vehicle: saline with Tween-80) 100 % of control; under setting [1], 100 % of control; under setting [2], 100 % of control.
As for `CCOC(=O)NC(C)(C)CN(C(=O)OCC)C(C)C`, the T/C (dose: 100.0 mg/kg/injection, schedule: Q04DX003 (ip), vehicle: other) is 95 % of control; the T/C (dose: 200.0 mg/kg/injection, schedule: Q04DX003 (ip), vehicle: other) is 100 % of control; the T/C (dose: 400.0 mg/kg/injection, schedule: Q04DX003 (ip), vehicle: other) is 95 % of control.
In the case of `CCC1CN2CCc3cc(OC)c(OC)cc3C2CC1Cl` (stereo not drawn), the T/C by setting is: under setting [3], 90 % of control; under setting [4], 90 % of control; under setting [5], 101 % of control; under setting [6], 96 % of control.
For `CC(/C=N/Nc1ccccc1)=N\N=c1/scc(-c2ccc(Br)cc2)n1-c1ccc(Br)cc1`, the T/C was 86 % of control under setting [1] and 86 % of control under setting [2].
As for `COC(=O)c1cccc2c1Oc1ccccc1S2`, the T/C is 102 % of control under setting [7], 103 % of control under setting [8], 102 % of control under setting [9] and 100 % of control under setting [10].
For the molecule `COc1ccccc1N1CCCSC1=Nc1ccccc1`, the T/C is 105 % of control (dose: 12.5 mg/kg/injection, schedule: Q01DX009 (ip), vehicle: Klucel (hydroxypropylcellulose) (HPC)); 98 % of control (dose: 25.0 mg/kg/injection, schedule: Q01DX009 (ip), vehicle: Klucel (hydroxypropylcellulose) (HPC)); 90 % of control (dose: 50.0 mg/kg/injection, schedule: Q01DX009 (ip), vehicle: Klucel (hydroxypropylcellulose) (HPC)); 119 % of control (dose: 100.0 mg/kg/injection, schedule: Q01DX009 (ip), vehicle: Klucel (hydroxypropylcellulose) (HPC)); 90 % of control (dose: 200.0 mg/kg/injection, schedule: Q01DX009 (ip), vehicle: Klucel (hydroxypropylcellulose) (HPC)).
For the molecule `Cc1cc(=Nc2ccc3c(c2)c(N)cc(C)[n+]3C)nc(N)n1C`, the T/C under setting [11] is 107 % of control, the T/C under setting [12] was 107 % of control and the T/C under setting [7] is 104 % of control.
With `O=C(CN1CCCCC1)c1c(-c2ccccc2)[nH]c2ccccc12`, the T/C is 108 % of control under setting [13], 99 % of control under setting [14] and 93 % of control under setting [15].
`C=C(Cl)C[N+]12CN3CN(CN(C3)C1)C2`: the T/C under setting [3] was 100 % of control, the T/C under setting [4] was 96 % of control, the T/C under setting [6] is 105 % of control and the T/C under setting [16] is 107 % of control.
`CCCCCCCCCCCCCCCC(=O)N(CCC#N)CCC#N`: the T/C reads like this: under setting [17], 185 % of control; under setting [18], 100 % of control.
Take `CNN(C)P(=S)(Oc1ccccc1)N(C)NC`: the T/C reads like this: under setting [19], 101 % of control; under setting [20], 103 % of control; under setting [21], 102 % of control.
On to `CCOC(=O)CCc1[nH]c(=S)ncc1C(=O)OCC`, for which the T/C (dose: 7.5 mg/kg/injection, schedule: Q01DX009 (ip), vehicle: saline with Tween-80) was 96 % of control; the T/C (dose: 15.0 mg/kg/injection, schedule: Q01DX009 (ip), vehicle: saline with Tween-80) is 101 % of control; the T/C (dose: 30.0 mg/kg/injection, schedule: Q01DX009 (ip), vehicle: saline with Tween-80) is 104 % of control.
With `COc1cc2ccnc(Cc3ccc4c(c3)OCO4)c2cc1OC`, the T/C under setting [6] is 115 % of control; the T/C under setting [16] was 95 % of control; the T/C under setting [13] was 100 % of control; the T/C (dose: 200.0 mg/kg/injection, schedule: Q01DX009 (ip), vehicle: saline) is 100 % of control; the T/C under setting [14] is 100 % of control; the T/C under setting [15] was 95 % of control.
Consider `CC(=O)CSc1ccc(Cl)cc1`, for which the T/C runs as follows: under setting [5], 99 % of control; under setting [17], 102 % of control; under setting [18], 116 % of control.
For `CCOC(=O)c1ccc(NC(N)=O)cc1`, the T/C is 101 % of control (dose: 25.0 mg/kg/injection, schedule: Q01DX009 (ip), vehicle: other); 102 % of control (dose: 50.0 mg/kg/injection, schedule: Q01DX009 (ip), vehicle: other); 98 % of control (dose: 100.0 mg/kg/injection, schedule: Q01DX009 (ip), vehicle: other); 98 % of control (dose: 200.0 mg/kg/injection, schedule: Q01DX009 (ip), vehicle: other); 93 % of control (dose: 400.0 mg/kg/injection, schedule: Q01DX009 (ip), vehicle: other).
On to `O=C1NC(=O)C2(CCCc3ccccc32)N1` (stereo not drawn), for which the T/C under setting [8] is 101 % of control; the T/C under setting [19] is 97 % of control; the T/C under setting [9] was 104 % of control; the T/C under setting [20] was 94 % of control; the T/C under setting [10] was 104 % of control; the T/C under setting [21] is 94 % of control.
Turning to `CSC1NN=C(CCC(=O)Nc2ccc(C)cc2)O1` (stereo not drawn), the T/C runs as follows: under setting [22], 108 % of control; under setting [23], 92 % of control; (dose: 240.0 mg/kg/injection, schedule: Q01DX005 (ip), vehicle: saline with Tween-80) 102 % of control.
As to `c1ccc2c(c1)[As]=c1ccccc1=[As]2` (stereo not drawn), the T/C was 107 % of control (dose: 0.79 mg/kg/injection, schedule: Q01DX009 (ip), vehicle: saline); 105 % of control and 118 % of control (dose: 1.56 mg/kg/injection, schedule: Q01DX009 (ip), vehicle: saline); 122 % of control (dose: 3.12 mg/kg/injection, schedule: Q01DX009 (ip), vehicle: saline); 173 % of control (dose: 6.25 mg/kg/injection, schedule: Q01DX009 (ip), vehicle: saline).
Take `CON1C(=O)C(c2cccs2)=C2SCC=C21`: the T/C is 107 % of control (dose: 15.0 mg/kg/injection, schedule: Q01DX005 (ip), vehicle: saline with Tween-80); 112 % of control (dose: 30.0 mg/kg/injection, schedule: Q01DX005 (ip), vehicle: saline with Tween-80); 112 % of control and 114 % of control under setting [22]; 112 % of control under setting [23].
As for `CC(=O)c1c(C)cc2cccc(O)c2c1O`, the T/C is 105 % of control (dose: 15.0 mg/kg/injection, schedule: Q01DX005 (ip), vehicle: Klucel (hydroxypropylcellulose) (HPC)); 112 % of control (dose: 30.0 mg/kg/injection, schedule: Q01DX005 (ip), vehicle: Klucel (hydroxypropylcellulose) (HPC)); 103 % of control under setting [24]; 108 % of control (dose: 120.0 mg/kg/injection, schedule: Q01DX005 (ip), vehicle: Klucel (hydroxypropylcellulose) (HPC)).
Regarding `[N-]=[N+]=CC(=O)CCC(NC(=O)OCc1ccccc1)C(=O)OCc1ccccc1` (stereo not drawn), the T/C is 102 % of control (dose: 0.78 mg/kg/injection, schedule: Q01DX005 (ip), vehicle: Klucel (hydroxypropylcellulose) (HPC)); 110 % of control (dose: 1.56 mg/kg/injection, schedule: Q01DX005 (ip), vehicle: Klucel (hydroxypropylcellulose) (HPC)); 101 % of control (dose: 3.13 mg/kg/injection, schedule: Q01DX005 (ip), vehicle: Klucel (hydroxypropylcellulose) (HPC)); 104 % of control under setting [11]; 99 % of control and 101 % of control and 113 % of control under setting [12]; 110 % of control and 120 % of control under setting [7]. The T/C (dose: 36.0 mg/kg/injection, schedule: Q01DX005 (ip), vehicle: Klucel (hydroxypropylcellulose) (HPC)) was 107 % of control; the T/C under setting [24] was 120 % of control; the T/C (dose: 278.0 mg/kg/injection, schedule: Q01DX005 (ip), vehicle: Klucel (hydroxypropylcellulose) (HPC)) was 152 % of control.
